Data reported in patent publication US20120177693A1, “DEEP LUNG PULMONARY DELIVERY OF TREPROSTINIL” (Aradigm Corporation, priority 2008, published 2012).
“And” between values parts separate entries of the source, which are not always exact repeats. Equal values may be shown once.

Experiments:
[1] = Gamma scintigraphy of 99mTc-DTPA radiolabeled treprostinil sodium inhaled via AERx Essence System or Nebu-Tec Optineb nebulizer, two-way crossover, 14 healthy male subjects; format: in vivo, human; conditions: for Calculated Lung Dose: monosodium salt; for Dose (calculated dose to lung): Median
From the text: This was an open label study conducted in a single-center, using a randomized, two-way crossover design. Sixteen healthy adult male subjects were to be enrolled to receive study treatments. Upon provision of written informed consent, each study candidate underwent a pre-study evaluation and screening to determine eligibility to participate.
On each of two dosing days, eligible subjects underwent dosing with ^99mTc-labeled treprostinil sodium using either the AERx Essence System or the Nebu-Tec Optineb nebulizer. Following their initial study dose, subjects underwent a washout period of approximately 48 hours before completing a second (crossover) study dose.
Immediately following each study dose, subjects underwent gamma scintigraphy and multiple samplings of venous blood to characterize treprostinil lung deposition and plasma pharmacokinetics.
Subjects also underwent a Krypton-81m (^81mKr) gas ventilation imaging procedure. This procedure could have been performed on any dosing day followed by a 30 minute washout before any of the aerosol dosing procedures, if there were logistical/scheduling problems, ventilation imaging could have been done after dosing. Alternatively the ^81mKr ventilation scan could have been performed on a separate visit. Additionally transmission images were also acquired this could have been performed on any dosing day prior to any of the aerosol dosing procedures or on a separate visit
A single “bulk” treprostinil sodium formulation (600 μg/mL) was used for both the Nebu-Tec Optineb nebulizer and the AERx Essence. The bulk drug solutions were diluted by the addition of ^99mTc-DTPA (2000 MBq/mL) at a ratio of 19:1, i.e. 0.05 mL of ^99mTc-DTPA was added to 0.950 mL of bulk drug solution. Each mL of the radiolabeled drug solutions therefore contained 100 MBq of ^99mTc-DTPA and 570 μg of treprostinil. The radiolabel ^99mTc as ^99mTc-DTPA was acquired from an approved supplier (i.e., the Medical Physics Department, University Hospital of Wales, Heath, Cardiff [Manufacturers License Number: MS/IMP18523]).
In this study, the radiolabel marker (^99mTc-DTPA) deposition profiles obtained following administration of a radiolabeled treprostinil sodium formulation will be evaluated using gamma to assess the performance for the two delivery systems. Gamma scintigraphy offers a precise and accurate method of evaluating the deposition of an inhaled radiolabeled aerosol in the oropharynx and lung.
To compare the emitted dose, delivered lung dose, and the central-to-peripheral (sC/P) lung deposition of radiolabeled treprostinil sodium delivered via the AERx Essence System versus the Nebu-Tec Optineb nebulizer using gamma scintigraphy.
In addition the following secondary efficacy variables were determined, the dose (μg) of treprostinil deposited in the lung, the percent dose (emitted and loaded) of radiolabeled treprostinil sodium in the oropharyngeal region from both devices, the percent loaded dose remaining in both devices and associated equipment e.g. mouthpiece.
Scintigraphic data were used to determine the fraction of the loaded dose delivered to the lung which was subsequently utilised to estimate the lung dose in terms of μg of Treprostinil. For AERx, the calculation of lung dose was derived by normalising the emitted dose to lung for the fraction (%) of the loaded dose retained post-administration i.e. within the device and dosage forms. The actual dose within the AERx strips (a single dose consisted of two strips) was calculated from the nominal treprostinil concentration adjusted for the actual concentration determined by HPLC assay of the stock radiolabeled drug solutions on each dosing day (see Table 14.2.1.5).
The Optineb device contained a drug reservoir (nebuliser cup) from which each dose (six separate puffs) was metered. To determine the dose available to the subject an in vitro test to collect a single emitted dose (ED) was performed for each device following subject dosing.

[2] = male, human, in vivo

Structure (SMILES): CCCCC[C@H](O)CC[C@@H]1[C@H]2Cc3cccc(OCC(=O)[O-])c3C[C@H]2C[C@H]1O.[Na+] [treprostinil, (1R,2R,3aS,9aS)-[[2,3,3a,4,9,9a-Hexahydro-2-hydroxyl-1-[(3S)-3-hydroxyoctyl]-1H-benz[f]inden-5-yl]oxy]acetic acid monosodium salt]
- Greater treprostinil lung dose for AERx than for the nebulizer ([1]; AERx vs nebulizer): 20%
- Calculated Lung Dose ([1]; via AERx, Max, listed as Treprostinil): 30.76 µg
- Calculated Lung Dose ([1]; via AERx, Max): 30.756 µg
- Calculated Lung Dose ([1]; via AERx, Mean, listed as Treprostinil): 26.07 µg
- Calculated Lung Dose ([1]; via AERx, Mean): 26.07 µg and 26.072 µg
- Dose (calculated dose to lung) ([1]; via AERx): 27.383 µg
- Calculated Lung Dose ([1]; via AERx, Min, listed as Treprostinil): 12.77 µg
- Calculated Lung Dose ([1]; via AERx, Min): 12.770 µg
- Calculated Lung Dose ([1]; via Optineb, Max, listed as Treprostinil): 30.69 µg
- Calculated Lung Dose ([1]; via Optineb, Max): 30.691 µg
- Calculated Lung Dose ([1]; via Optineb, Mean, listed as Treprostinil): 19.58 µg
- Calculated Lung Dose ([1]; via Optineb, Mean): 19.58 µg and 19.579 µg
- Dose (calculated dose to lung) ([1]; via Optineb): 18.470 µg
- Calculated Lung Dose ([1]; via Optineb, Min, listed as Treprostinil): 9.30 µg
- Calculated Lung Dose ([1]; via Optineb, Min): 9.296 µg
- Adverse events considered possibly related to the study medication [2]: 15
- Adverse events considered probably related to study medication [2]: 11
- Adverse events considered unlikely related to the study medication [2]: 1
- Adverse events recorded as mild in intensity [2]: 23
- Adverse events recorded as moderate in intensity [2]: 4
- Number of Subjects (% brackets) with CHEST DISCOMFORT [2]: 2 (14.3)
- Number of Subjects (% brackets) with COUGH [2]: 6 (42.9)
- Number of Subjects with CHEST DISCOMFORT, relationship POSSIBLE [2]: 1
- Number of Subjects with CHEST DISCOMFORT, relationship PROBABLE [2]: 1
- Number of Subjects with CHEST DISCOMFORT, relationship UNLIKELY [2]: 0
- Number of Subjects with COUGH, relationship UNLIKELY [2]: 0
- Number of Subjects with DIZZINESS, relationship POSSIBLE [2]: 2
- Number of Subjects with DIZZINESS, relationship PROBABLE [2]: 0
- Number of Subjects with DIZZINESS, relationship UNLIKELY [2]: 0
- Number of Subjects with DRY THROAT, relationship POSSIBLE [2]: 1
- Number of Subjects with DRY THROAT, relationship PROBABLE [2]: 0
- Number of Subjects with DRY THROAT, relationship UNLIKELY [2]: 0
- Number of Subjects with DYSPNOEA, relationship POSSIBLE [2]: 0
- Number of Subjects with DYSPNOEA, relationship PROBABLE [2]: 1
- Number of Subjects with DYSPNOEA, relationship UNLIKELY [2]: 0
- Number of Subjects with HEADACHE, relationship PROBABLE [2]: 0
- Number of Subjects with HEADACHE, relationship UNLIKELY [2]: 0
- Number of Subjects with PHARYNG[…], relationship POSSIBLE [2]: 1
- Number of Subjects with PHARYNG[…], relationship PROBABLE [2]: 0
- Number of Subjects with PHARYNG[…], relationship UNLIKELY [2]: 0
- Number of Subjects with PLEURITIC PAIN, relationship POSSIBLE [2]: 0
- Number of Subjects with PLEURITIC PAIN, relationship PROBABLE [2]: 1
- Number of Subjects with PLEURITIC PAIN, relationship UNLIKELY [2]: 0
- Number of Subjects with SYNCOPE VASOVAGAL, relationship POSSIBLE [2]: 1
- Number of Subjects with SYNCOPE VASOVAGAL, relationship PROBABLE [2]: 0
- Number of Subjects with SYNCOPE VASOVAGAL, relationship UNLIKELY [2]: 0
- Total treatment emergent adverse events [2]: 27
- Vaso-vegal episode, duration [2]: 14 min
- Vaso-vegal episode, time of occurrence after administration [2]: 22 min
